Experimental data from patent US20250188037A1, “N-(PYRROLIDIN-3-YL OR PIPERIDIN-4-YL)ACETAMIDE DERIVATIVES” (Takeda Pharmaceutical Company Limited, priority 2022, published 2025).
Like-named read-outs stand apart in the source and are kept apart here.

What was measured:
SSTR4 [1] = molecular target: T1, SSTR4 (Homo sapiens (Human), UniProt P31391); assay: SSTR4 I-125 somatostatin competition binding assay; details: for IC50: membranes from CHO-K1 cells overexpressing SSTR4, read-out: SSTR4 Binding pIC50 (converted); for SSTR4 Binding pIC50: membranes from CHO-K1 cells overexpressing SSTR4
Excerpt: The scintillator sheets are melted to filters using a heat block.

SSTR1 [2] = molecular target: T2, SSTR1 (Homo sapiens (Human), UniProt P30872); assay: biochemical;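 also: binding assay on CHO-K1 cell membranes overexpressing SSTR1, incubated 60 min at room temperature, bound fraction collected on filters and read by scintillation counting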
Method: (§1) Membranes from CHO-K1 cells overexpressing SSTR1 are purchased from Perkin Elmer (catalog number ES-520-M400UA). […] Then 10 μg of SSTR1 membranes in 50 μL assay buffer are added per well. The plate is incubated for 60 minutes at room temperature. […] The contents of the assay plate are transferred to filters with a TomTech harvester and washed 5 times with 20 mM HEPES, 100 mM NaCl. […] The scintillator sheets are melted to the filters using a heat block. The filters are then read in a MicroBeta scintillation counter. Binding Ki curves are generated using Activity Base for Screening Data Management and the results are reported as pIC50.

SSTR4 [3] = molecular target: T1, SSTR4; assay: Inhibition of forskolin stimulated cAMP in cells overexpressing SSTR4; assay type: cell-based; details: inhibition of forskolin stimulated cAMP in CHO-K1 cells overexpressing SSTR4; read-out: SSTR4 Activity pEC50 (converted)
Method: Inhibition of Forskolin Stimulated cAMP in Cells Overexpressing SSTR4
This cell-based assay measures the ability of compounds to inhibit forskolin stimulated cAMP in CHO-K1 cells overexpressing SSTR4. CHO-K1 cells overexpressing SSTR4 (CHO-SSTR4) are purchased from DiscoveRx (product code 95-0059C2). The CHO-SSTR4 cells are maintained in F12K media with 10% Fetal Bovine Serum (Hyclone), 1% Pen/Strep (Life Technologies), and 800 μg/mL G418 (Life Technologies). […] The next day, the culture media is removed from the cells and the cells are washed (added then removed) with Krebs Ringer Buffer (ZenBio, KRB-1000 mL). […] The cells are incubated in 10 μL compound/stimulation buffer for 30 minutes at room temperature. Cellular cAMP levels are detected with a HTRF LANCE Ultra cAMP kit (Perkin Elmer, catalog number TRF0264).
The assay is performed in accordance with the manufacturer's instructions. […] of diluted Eu—W8044 labeled streptavidin (dilution: 1:50 in cAMP Detection Buffer) is added to each well. Then 5 μL of diluted biotin cAMP (dilution: 1:150 in cAMP Detection Buffer) is added to each well. The plates are covered and allowed to incubate for 60 minutes at room temperature on a shaker. […] The pEC50 values are generated using Activity Base for Screening Data Management.

SSTR1 [4] = molecular target: T2, SSTR1
Method: as §1

T1 sequence (P31391 whole entry): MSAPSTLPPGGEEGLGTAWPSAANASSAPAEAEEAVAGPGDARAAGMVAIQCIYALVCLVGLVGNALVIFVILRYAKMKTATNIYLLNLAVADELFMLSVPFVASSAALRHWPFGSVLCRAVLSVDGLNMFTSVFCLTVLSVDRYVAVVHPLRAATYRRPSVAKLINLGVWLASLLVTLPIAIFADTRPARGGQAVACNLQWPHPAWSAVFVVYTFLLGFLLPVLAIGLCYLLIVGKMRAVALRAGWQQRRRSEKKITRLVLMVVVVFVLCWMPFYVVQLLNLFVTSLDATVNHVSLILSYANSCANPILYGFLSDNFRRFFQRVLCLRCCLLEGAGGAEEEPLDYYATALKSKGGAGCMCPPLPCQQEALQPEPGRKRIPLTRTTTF
T2 sequence (P30872 whole entry): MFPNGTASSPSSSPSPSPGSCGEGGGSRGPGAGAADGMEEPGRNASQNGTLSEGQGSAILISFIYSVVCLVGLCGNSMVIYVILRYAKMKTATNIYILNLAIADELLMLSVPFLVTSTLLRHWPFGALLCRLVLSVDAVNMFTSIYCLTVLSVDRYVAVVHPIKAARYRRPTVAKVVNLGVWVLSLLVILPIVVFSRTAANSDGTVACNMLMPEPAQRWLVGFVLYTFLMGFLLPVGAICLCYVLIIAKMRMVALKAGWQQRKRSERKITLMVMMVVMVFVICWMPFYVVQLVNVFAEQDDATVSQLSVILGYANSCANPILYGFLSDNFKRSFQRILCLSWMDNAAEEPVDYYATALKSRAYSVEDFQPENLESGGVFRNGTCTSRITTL

Structure (SMILES) | IC50 (SSTR4 [1]) [nM] | IC50 (SSTR1 [2]) [nM] | EC50 (SSTR4 [3]) [nM] | SSTR4 Binding pIC50 (SSTR4 [1]) | IC50 (SSTR1 [4]) [nM]
Cc1cccc(CC2(C(=O)N[C@@H]3CN(C)C[C@H]3C(C)C)CC2)c1 (racemic) [Example 3, N-(trans-4-isopropyl-1-methylpyrrolidin-3-yl)-1-(3-methylbenzyl)cyclopropane-1-carboxamide] | 91.2 | 5370 | 12.6 |  | 
COc1cccc(CC2(C(=O)N[C@H]3CCNC[C@@H]3F)CC2)c1 [Example 46, N-((3S,4S)-3-fluoropiperidin-4-yl)-1-(3-methoxybenzyl)cyclopropane-1-carboxamide] |  |  | 11.7 | 7.29 | > 50100
C[C@@H]1C[C@H](NC(=O)C(F)(F)Oc2ccccc2)CCN1 [Example 51, 2,2-difluoro-N-((2R,4R)-2-methylpiperidin-4-yl)-2-phenoxyacetamide] |  |  | 35.5 | 5.53 | > 50100
C[C@H]1C[C@H](NC(=O)C(F)(F)Oc2ccccc2)CCN1 [Example 53, 2,2-difluoro-N-((2S,4R)-2-methylpiperidin-4-yl)-2-phenoxyacetamide] |  |  | 55 | 5.43 | > 50100
C[C@H]1CNCC[C@@H]1NC(=O)C(F)(F)Oc1ccccc1F [Example 54, 2,2-difluoro-2-(2-fluorophenoxy)-N-((3S,4S)-3-methylpiperidin-4-yl)acetamide] |  |  | 21.4 | 6.55 | > 50100
Cc1ccccc1OC(F)(F)C(=O)N[C@H]1CCNC[C@@H]1C [Example 56, 2,2-difluoro-N-((3S,4S)-3-methylpiperidin-4-yl)-2-(o-tolyloxy)acetamide] |  |  | 1.7 | 7.14 | 44700

Further lines, results first:

IC50 (SSTR4 [1]) [nM] | IC50 (SSTR1 [2]) [nM] | EC50 (SSTR4 [3]) [nM] | SSTR4 Binding pIC50 (SSTR4 [1]) | IC50 (SSTR1 [4]) [nM] | Structure (SMILES)
513 | 15500 | 70.8 |  |  | C[C@@H]1CN(C)CC[C@H]1NC(=O)C1(Cc2ccc(F)cc2)CC1 (racemic) [Example 10, N-(trans-1,3-dimethylpiperidin-4-yl)-1-(4-fluorobenzyl)cyclopropane-1-carboxamide]
891 | 15800 | 57.5 |  |  | Cc1ccccc1CC1(C(=O)N[C@@H]2CCN(C)C[C@H]2C)CC1 (racemic) [Example 12, N-(trans-1,3-dimethylpiperidin-4-yl)-1-(2-methylbenzyl)cyclopropane-1-carboxamide]
 |  | 91.2 | 5.43 | > 50100 | C[C@H]1C[C@@H](NC(=O)C(F)(F)Oc2ccccc2)CCN1 [Example 48, 2,2-difluoro-N-((2S,4S)-2-methylpiperidin-4-yl)-2-phenoxyacetamide]
 |  | 5.25 | 7.13 | > 50100 | C[C@H]1CNCC[C@@H]1NC(=O)C(F)(F)Oc1cccc(F)c1 [Example 55, 2,2-difluoro-2-(3-fluorophenoxy)-N-((3S,4S)-3-methylpiperidin-4-yl)acetamide]
 |  | 5.01 | 6.77 | 46800 | C[C@H]1CNCC[C@@H]1NC(=O)C(F)(F)Oc1ccc(F)cc1 [Example 58, 2,2-difluoro-2-(4-fluorophenoxy)-N-((3S,4S)-3-methylpiperidin-4-yl)acetamide]
 |  | 1.32 | 7.25 | 19100 | C[C@H]1CNCC[C@@H]1NC(=O)C(F)(F)Oc1ccccc1Cl [Example 64, 2-(2-chlorophenoxy)-2,2-difluoro-N-((3S,4S)-3-methylpiperidin-4-yl)acetamide]
 |  | 18.2 | 6.48 | > 50100 | O=C(NC1CCNCC1)C(F)(F)Oc1ccccc1Cl [Example 70, 2-(2-chlorophenoxy)-2,2-difluoro-N-(piperidin-4-yl)acetamide]
